Data as given in US11046700B2, “Substituted imidazo[1,2-a]pyrazines, pyrazolo[1,5-c]pyrimidines, pyrazolo[1,5-a]pyridines, and purines for the treatment of schistosomiasis” (Merck Patent GmbH, priority 2017, dated 2021).
pIC50: −log10 of the molar value. Like-named read-outs stand apart in the source and are kept apart here.

Experiments:
Format in all cases: cell-based
[1] = tested on: S. mansoni adult worms; experiment: In vitro assay, S. mansoni adult worms; details: Schistosoma mansoni; S. mansoni adult worms, in vitro; read-out: (a) Adult
Protocol: (§1) The routine biological assays using adult or juvenile worms and cytotoxicity assays using MRC-5 cells have been disclosed previously in Mansour, N. R., et al. (2016). “High Throughput Screening Identifies Novel Lead Compounds with Activity against Larval, Juvenile and Schistosoma mansoni PLoS Negl Trap Dis 10(4): e0004659. Cytotoxicity assays using the HepG2 cell line were carried out as described in Molecular Diversity (2015) 19, 251-261.
(a) S. mansoni adult worms

[2] = tested on: S. mansoni juvenile worms; experiment: In vitro assay, S. mansoni juvenile worms; details: Schistosoma mansoni, read-out: (b) Juvenile
Protocol: as §1
(b) S. mansoni juvenile worms

[3] = tested on: HepG2 cell line; experiment: Cytotoxicity against human HepG2 cell lines
[4] = S. mansoni juvenile worms, in vitro

Cc1nc2cnc(-c3cccc(C(F)(F)F)c3)cn2c1-c1ccc(O)cc1 [Example 4, 4-[2-methyl-6-[3-(trifluoromethyl)phenyl]imidazo[1,2-a]pyrazin-3-yl]phenol] showed a pIC50 [1] of 6.31 and a pIC50 [2, 4] of 5.85.
COc1cc(-c2c(C)nc3cnc(-c4cccc(C(F)(F)F)c4)cn23)ccc1O [Example 5, 2-methoxy-4-(2-methyl-6-(3-(trifluoromethyl)phenyl)imidazo[1,2-a]pyrazin-3-yl)] showed a pIC50 [1] of 6.28 and a pIC50 [2, 4] of 5.90.
Oc1ccc(-c2c(C(F)F)nc3cnc(-c4cccc(C(F)(F)F)c4)cn23)c(F)c1 [Example 11, 3-fluoro-4-[2-difluoromethyl-6-[3-(trifluoromethyl)phenyl]imidazo[1,2-a]pyrazin-3-yl]phenol] showed a pIC50 [2, 4] of 6.31.
Work on Oc1ccc(-c2c(C(F)(F)F)nc3cnc(-c4cccc(C(F)(F)F)c4)cn23)c(F)c1 [Example 12, 3-fluoro-4-[2-trifluoromethyl-6-[3-(trifluoromethyl)phenyl]imidazo[1,2-a]pyrazin-3-yl]phenol] yielded a pIC50 [1] of over 7.31 and a pIC50 [2, 4] of 6.60.
COc1ccc(-c2c(C3CC3)nc3cnc(-c4cccc(C(F)(F)F)c4)cn23)cc1O [Example 13, 2-methoxy-5-[2-cyclopropyl-6-[3-(trifluoromethyl)phenyl]imidazo[1,2-a]pyrazin-3-yl]phenol] showed a pIC50 [1] of 7.14 and a pIC50 [2, 4] of 7.20.
Oc1ccc(-c2c(C3CC3)nc3cnc(-c4cccc(C(F)(F)F)c4)cn23)c(F)c1 [Example 14, 3-fluoro-4-[2-cyclopropyl-6-[3-(trifluoromethyl)phenyl]imidazo[1,2-a]pyrazin-3-yl]phenol] was tested, and the pIC50 [2, 4] was 6.64.
With Cc1nc2cnc(-c3cccc(C(F)(F)F)c3)cn2c1-c1c(F)cc(O)cc1F [Example 15, 3,5-difluoro-4-[2-methyl-6-[3-(trifluoromethyl)phenyl]imidazo[1,2-a]pyrazin-3-yl]phenol] the “(e) Cytotox HepG2” value [3] was 8.4 µM and the pIC50 [2, 4] was 6.77.
Work on CCCc1nc2cnc(-c3cccc(C(F)(F)F)c3)cn2c1-c1ccc(OC)c(O)c1 [Example 18, 2-methoxy-5-[2-(propan-1-yl)-6-[3-(trifluoromethyl)phenyl]imidazo[1,2-a]pyrazin-3-yl]phenol] yielded a pIC50 [2, 4] of 6.54.
COc1cc(O)ccc1-c1c(C(C)C)nc2cnc(-c3cccc(C(F)(F)F)c3)cn12 [Example 20, 4-(2-isopropyl-6-(3-(trifluoromethyl)phenyl)imidazo[1,2-a]pyrazin-3-yl)-3-methoxyphenol] was tested, and the pIC50 [1] was 6.04 and the pIC50 [2, 4] was 5.98.
Work on COc1ccc(-c2c(C)nn3cnc(-c4cccc(C(F)(F)F)c4)cc23)cc1O [Example 23, 2-methoxy-5-(2-methyl-5-(3-(trifluoromethyl)phenyl)pyrazolo[1,5-c]pyrimidin-3-yl)phenol] yielded a pIC50 [2, 4] of 6.10.
Compound COc1ccc(-c2c(C(C)C)nn3cnc(-c4cccc(C(F)(F)F)c4)cc23)cc1O [Example 25, 5-(2-isopropyl-5-(3-(trifluoromethyl)phenyl)pyrazolo[1,5-c]pyrimidin-3-yl)-2-methoxyphenol] has a pIC50 [2, 4] of 6.96.
In the case of COc1ccc(-c2c(CC3CC3)nc3cnc(-c4cccc(C(F)(F)F)c4)cn23)cc1O [Example 26, 2-methoxy-5-[2-(cyclopropylmethyl)-6-[3-(trifluoromethyl)phenyl]imidazo[1,2-a]pyrazin-3-yl]phenol], the pIC50 [2, 4] was 6.66.
COc1ccc(-c2c(C(C)C)nc3cnc(-c4ccc(F)c(C(F)(F)F)c4)cn23)cc1O [Example 27, 2-methoxy-5-[2-(propan-2-yl)-6-[4-fluoro-3-(trifluoromethyl)phenyl]imidazo[1,2-a]pyrazin-3-yl]phenol] showed a pIC50 [1] of over 7.31 and a pIC50 [2, 4] of 6.83.
COc1ccc(-c2c(C(C)C)nc3cnc(-c4cccc(C(F)(F)F)c4)cn23)cc1OP(=O)(O)O [Example 28, 2-methoxy-5-[2-(propan-2-yl)-6-[3-(trifluoromethyl)phenyl]imidazo[1,2-a]pyrazin-3-yl]phenoxyphosphonic acid] was tested, and the “(e) Cytotox HepG2” value [3] was 19.2 µM and the pIC50 [2] was 6.74.
With Cc1nc2cnc(-c3cccc(S(F)(F)(F)(F)F)c3)cn2c1-c1c(F)cc(O)cc1F [Example 31, 3,5-difluoro-4-[2-methyl-6-[3-(pentafluorosulfanyl)phenyl]imidazo[1,2-a]pyrazin-3-yl]phenol] the pIC50 [2, 4] was 7.00.
In the case of CCc1nc2cnc(-c3ccc(F)c(C(F)(F)F)c3)cn2c1-c1ccc2[nH]ncc2c1F [Example 37, 4-fluoro-5-{2-ethyl-6-[4-fluoro-3-(trifluoromethyl)phenyl]imidazo[1,2-a]pyrazin-3-yl}-1H-indazole], the “(e) Cytotox HepG2” value [3] was 13.1 µM and the pIC50 [2, 4] was 6.96.
Oc1cc(F)c(-c2c(CC(F)(F)F)nc3cnc(-c4ccc(F)c(C(F)(F)F)c4)cn23)c(F)c1 [Example 38, 3,5-difluoro-4-(6-(4-fluoro-3-(trifluoromethyl)phenyl)-2-(2,2,2-trifluoroethyl)imidazo[1,2-a]pyrazin-3-yl)phenol] gave a pIC50 [2, 4] of 6.85.
Cc1nc2cnc(-c3ccc(F)c(C(F)(F)F)c3)cn2c1-c1c(F)cc(OP(=O)(O)O)cc1F [Example 41, 3,5-difluoro-4-{6-[4-fluoro-3-(trifluoromethyl)phenyl]-2-methyl-imidazo[1,2-a]pyrazin-3-yl}phenoxyphosphonic acid] was tested, and the “(e) Cytotox HepG2” value [3] was 6.8 µM and the pIC50 [2] was 7.00.
With Cc1nn2cnc(-c3ccc(F)c(C(F)(F)F)c3)cc2c1-c1c(F)cc(O)cc1F [Example 42, 3,5-difluoro-4-(5-(4-fluoro-3-(trifluoromethyl)phenyl)-2-methylpyrazolo[1,5-c]pyrimidin-3-yl)phenol] the pIC50 [2, 4] was 6.96.
Work on Fc1ccc(-c2cn3c(-c4ccc5[nH]ncc5c4F)c(C4CC4)nc3cn2)cc1C(F)(F)F [Example 43, 2-cyclopropyl-3-(4-fluoro-1H-indazol-5-yl)-6-(4-fluoro-3-(trifluoromethyl)phenyl)imidazo[1,2-a]pyrazine] yielded a pIC50 [2, 4] of 6.96.
With Fc1ccc(-c2cn3c(-c4ccc5[nH]ncc5c4F)c(C4CC4)nc3cn2)cc1C(F)(F)C(F)(F)F [Example 54, 5-{2-cyclopropyl-6-[4-fluoro-3-(1,1,2,2,2-pentafluoroethyl)phenyl]imidazo[1,2-a]pyrazin-3-yl}-4-fluoro-1H-indazole] the pIC50 [1] was 7.64 and the pIC50 [2, 4] was 7.43.
Fc1ccc(-c2cc3c(-c4ccc5[nH]ncc5c4F)c(C4CC4)nn3cn2)cc1C(F)(F)C(F)(F)F [Example 59, 2-Cyclopropyl-3-(4-fluoro-1H-indazol-5-yl)-5-(4-fluoro-3-pentafluoroethyl-phenyl)-pyrazolo[1,5-c]pyrimidine] gave a pIC50 [1] of 7.18 and a pIC50 [2, 4] of 7.44.
With Oc1cc(F)c(-c2c(C3CC3)nn3cnc(-c4ccc(F)c(C(F)(F)F)c4)cc23)c(F)c1 [Example 60, 4-[2-Cyclopropyl-5-(4-fluoro-3-trifluoromethyl-phenyl)-pyrazolo[1,5-c]pyrimidin-3-yl]-3,5-difluoro-phenol] the pIC50 [1] was 7.77 and the pIC50 [2, 4] was 7.68.
In the case of CC(C)c1nn2cnc(-c3ccc(F)c(C(F)(F)F)c3)cc2c1-c1ccc2[nH]ncc2c1F [Example 61, 3-(4-Fluoro-1H-indazol-5-yl)-5-(4-fluoro-3-trifluoromethyl-phenyl)-2-isopropylpyrazolo[1,5-c]pyrimidine], the pIC50 [1] was 7.43 and the pIC50 [2, 4] was 7.22.
Cc1nc2cnc(-c3ccc(F)c(S(F)(F)(F)(F)F)c3)cn2c1-c1ccc2[nH]ncc2c1F [Example 64, 3-(4-Fluoro-1H-indazol-5-yl)-6-(4-fluoro-3-pentafluorosulfanyl-phenyl)-2-methyl-imidazo[1,2-a]pyrazine] was tested, and the pIC50 [1] was 7.59 and the pIC50 [2, 4] was 7.11.
CC(C)c1nc2cnc(-c3ccc(F)c(S(F)(F)(F)(F)F)c3)cn2c1-c1ccc2[nH]ncc2c1F [Example 68, 3-(4-Fluoro-1H-indazol-5-yl)-6-(4-fluoro-3-pentafluorosulfanyl-phenyl)-2-isopropyl-imidazo[1,2-a]pyrazine] was tested, and the pIC50 [1] was 7.96 and the pIC50 [2, 4] was 8.00.
Fc1c(-c2c(C(F)(F)F)nc3cnc(-c4cccc(C(F)(F)F)c4)cn23)ccc2[nH]ncc12 [Example 70, 3-(4-Fluoro-1H-indazol-5-yl)-2-trifluoromethyl-6-(3-trifluoromethyl-phenyl)-imidazo[1,2-a]pyrazine] showed a pIC50 [1] of 7.60 and a pIC50 [2, 4] of 7.39.
With CC(C)c1nc2cnc(-c3cccc(Br)c3)cn2c1-c1ccc2[nH]ncc2c1F [Example 73, 6-(3-Bromo-phenyl)-3-(4-fluoro-1H-indazol-5-yl)-2-isopropyl-imidazo[1,2-a]pyrazine] the pIC50 [1] was 7.44 and the pIC50 [2, 4] was 7.57.
With Fc1ccc(-c2cn3c(-c4ccc5[nH]ncc5c4F)c(C4CCC4)nc3cn2)cc1C(F)(F)F [Example 76, 2-Cyclobutyl-3-(4-fluoro-1H-indazol-5-yl)-6-(4-fluoro-3-trifluoromethyl-phenyl)-imidazo[1,2-a]pyrazine] the pIC50 [1] was 7.43 and the pIC50 [2, 4] was 7.44.
In the case of C#CCOc1cc(-c2cn3c(-c4ccc5[nH]ncc5c4F)c(C(F)(F)F)nc3cn2)ccc1F [Example 78, 3-(4-Fluoro-1H-indazol-5-yl)-6-(4-fluoro-3-prop-2-ynyloxy-phenyl)-2-trifluoromethyl-imidazo[1,2-a]pyrazine], the pIC50 [1] was 8.00 and the pIC50 [2, 4] was 7.68.
With CC(C)c1cc(-c2cn3c(-c4c(F)cc(O)cc4F)c(C4CC4)nc3cn2)ccc1F [Example 80, 4-[2-Cyclopropyl-6-(4-fluoro-3-isopropyl-phenyl)-imidazo[1,2-a]pyrazin-3-yl]-3,5-difluoro-phenol] the pIC50 [1] was 8.40 and the pIC50 [2, 4] was 8.30.
Fc1ccc(-c2cn3c(-c4ccc5[nH]ncc5c4F)c(C(F)(F)F)nc3cn2)cc1Br [Example 85, 6-(3-Bromo-4-fluoro-phenyl)-3-(4-fluoro-1H-indazol-5-yl)-2-trifluoromethyl-imidazo[1,2-a]pyrazine] showed a pIC50 [1] of 7.32 and a pIC50 [2, 4] of 8.15.
